Experimental data taken from patent publication US20090221829A1 (priority 2005, published 2009).

Tested on: Candida albicans(KCTC 1940), Aspergillus niger (ATCC 9642) and Saccharomyces cerevisiae
Experiment: Relative antifungal activity by agar dilution method (vs Miconazole);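 also: scores 5 to 7 mean a lower fungicidal concentration than Miconazole so higher is more potent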
Format: cell-based
Settings: agar dilution method; fungicidal concentration relative to control drug Miconazole (=4)
Description: Novel compounds represented by the above chemical formula (I), and the relative activities in accordance with the agar dilution method in Sabouraud dextrose agar media, Czapek agar media and Yeast Extract-Peptone-Dextrose agar media for Candida albicans(KCTC 1940), Aspergillus niger (ATCC 9642) and Saccharomyces cerevisiae are described respectively in following Table 1.

Row | Compound | Relative Activity
1 | CCCCCCCC1=[N+](Cc2ccc(F)c(F)c2)CCc2cc(OC)c(OC)cc21.[Cl-] [Compound No. 43, 1-n-heptyl-2-(3,4-difluorophenyl)methyl-3,4-dihydro-6,7-dimethoxyisoquinolinium chloride] | 3
2 | CCCCCCCCCCCC1=[N+](Cc2ccc(F)c(F)c2)CCc2cc(OC)c(OC)cc21.[Cl-] [Compound No. 44, 1-n-undecyl-2-(3,4-difluorophenyl)methyl-3,4-dihydro-6,7-dimethoxyisoquinolinium chloride] | 1
3 | CCCCCCC1=[N+](Cc2ccc(C(F)(F)F)cc2)CCc2cc(OC)c(OC)cc21.[Cl-] [Compound No. 45, 1-n-hexyl-2-(4-trifluoromethylphenyl)methyl-3,4-dihydro-6,7-dimethoxyisoquinolinium chloride] | 4
4 | CCCCCCCCCCCCCCCC1=[N+](Cc2ccc(F)c(F)c2)CCc2cc(OC)c(OC)cc21.[Cl-] [Compound No. 46, 1-n-pentadecyl-2-(3,4-difluorophenyl)methyl-3,4-dihydro-6,7-dimethoxyisoquinolinium chloride] | 1
5 | COc1cc2c(cc1OC)C(c1ccccc1F)=[N+](Cc1ccc(F)c(F)c1)CC2.[Cl-] [Compound No. 47, 1-(2-fluorophenyl)-2-(3,4-difluorophenyl)methyl-3,4-dihydro-6,7-dimethoxyisoquinolinium chloride] | 6
6 | COc1cc2c(cc1OC)C(C)=[N+](Cc1ccccc1Cl)CC2.[Cl-] [Compound No. 49, 1-methyl-2-(2-chlorophenyl)methyl-3,4-dihydro-6,7-dimethoxyisoquinolinium chloride] | 6
7 | CCCCCC1=[N+](Cc2ccccc2Cl)CCc2cc(OC)c(OC)cc21.[Cl-] [Compound No. 50, 1-n-pentyl-2-(2-chlorophenyl)methyl-3,4-dihydro-6,7-dimethoxyisoquinolinium chloride] | 6
8 | CCCCCCC1=[N+](Cc2ccccc2Cl)CCc2cc(OC)c(OC)cc21.[Cl-] [Compound No. 51, 1-n-hexyl-2-(2-chlorophenyl)methyl-3,4-dihydro-6,7-dimethoxyisoquinolinium chloride] | 4
9 | CCCCCCCC1=[N+](Cc2ccccc2Cl)CCc2cc(OC)c(OC)cc21.[Cl-] [Compound No. 52, 1-n-heptyl-2-(2-chlorophenyl)methyl-3,4-dihydro-6,7-dimethoxyisoquinolinium chloride] | 3
10 | CCCCCCCCCCCC1=[N+](Cc2ccccc2Cl)CCc2cc(OC)c(OC)cc21.[Cl-] [Compound No. 53, 1-n-undecyl-2-(2-chlorophenyl)methyl-3,4-dihydro-6,7-dimethoxyisoquinolinium chloride] | 2
11 | CCCCCCCCCCCCCCCC1=[N+](Cc2ccccc2Cl)CCc2cc(OC)c(OC)cc21.[Cl-] [Compound No. 54, 1-n-pentadecyl-2-(2-chlorophenyl)methyl-3,4-dihydro-6,7-dimethoxyisoquinolinium chloride] | 1
12 | COc1cc2c(cc1OC)C(C)=[N+](Cc1c(F)cccc1F)CC2.[Cl-] [Compound No. 56, 1-methyl-2-(2,6-difluorophenyl)methyl-3,4-dihydro-6,7-dimethoxyisoquinolinium chloride] | 6
13 | CCCCCCC1=[N+](Cc2c(F)cccc2F)CCc2cc(OC)c(OC)cc21.[Cl-] [Compound No. 58, 1-n-hexyl-2-(2,6-difluorophenyl)methyl-3,4-dihydro-6,7-dimethoxyisoquinolinium chloride] | 4
14 | CCCCCCCCCCCC1=[N+](Cc2c(F)cccc2F)CCc2cc(OC)c(OC)cc21.[Cl-] [Compound No. 59, 1-n-undecyl-2-(2,6-difluorophenyl)methyl-3,4-dihydro-6,7-dimethoxyisoquinolinium chloride] | 1
15 | CCCCCCCC1=[N+](Cc2c(F)cccc2F)CCc2cc(OC)c(OC)cc21.[Cl-] [Compound No. 61, 1-n-heptyl-2-(2,6-difluorophenyl)methyl-3,4-dihydro-6,7-dimethoxyisoquinolinium chloride] | 4
16 | COc1cc2c(cc1OC)C(c1ccc(C(C)(C)C)cc1)=[N+](Cc1c(F)cccc1F)CC2.[Cl-] [Compound No. 63, 1-(4-t-butylphenyl)-2-(2,6-difluorophenyl)methyl-3,4-dihydro-6,7-dimethoxyisoquinolinium chloride] | 6
17 | COc1cc2c(cc1OC)C(C)=[N+](Cc1c(F)cccc1Cl)CC2.[Cl-] [Compound No. 64, 1-methyl-2-(2-chloro-6-fluorophenyl)methyl-3,4-dihydro-6,7-dimethoxyisoquinolinium chloride] | 6
18 | COc1cc2c(cc1OC)C(C(C)C)=[N+](Cc1c(F)cccc1Cl)CC2.[Cl-] [Compound No. 65, 1-i-propyl-2-(2-chloro-6-fluorophenyl)methyl-3,4-dihydro-6,7-dimethoxyisoquinolinium chloride] | 5

Row | Compound | Relative Activity
19 | CCCCCC1=[N+](Cc2c(F)cccc2Cl)CCc2cc(OC)c(OC)cc21.[Cl-] [Compound No. 66, 1-n-pentyl-2-(2-chloro-6-fluorophenyl)methyl-3,4-dihydro-6,7-dimethoxyisoquinolinium chloride] | 5
20 | CCCCCCCC1=[N+](Cc2c(F)cccc2Cl)CCc2cc(OC)c(OC)cc21.[Cl-] [Compound No. 67, 1-n-heptyl-2-(2-chloro-6-fluorophenyl)methyl-3,4-dihydro-6,7-dimethoxyisoquinolinium chloride] | 4
21 | CCCCCCCCCCCC1=[N+](Cc2c(F)cccc2Cl)CCc2cc(OC)c(OC)cc21.[Cl-] [Compound No. 68, 1-n-undecyl-2-(2-chloro-6-fluorophenyl)methyl-3,4-dihydro-6,7-dimethoxyisoquinolinium chloride] | 2
22 | COc1cc2c(cc1OC)C(c1ccccc1F)=[N+](Cc1c(F)cccc1Cl)CC2.[Cl-] [Compound No. 69, 1-(2-fluorophenyl)-2-(2-chloro-6-fluorophenyl)methyl-3,4-dihydro-6,7-dimethoxyisoquinolinium chloride] | 6
23 | COc1cc2c(cc1OC)C(c1ccc(C(C)(C)C)cc1)=[N+](Cc1c(F)cccc1Cl)CC2.[Cl-] [Compound No. 70, 1-(4-t-butylphenyl)-2-(2-chloro-6-fluorophenyl)methyl-3,4-dihydro-6,7-dimethoxyisoquinolinium chloride] | 6
24 | COc1cc2c(cc1OC)C(C)=[N+](Cc1ccccc1[N+](=O)[O-])CC2.[Cl-] [Compound No. 71, 1-methyl-2-(2-nitrophenyl)methyl-3,4-dihydro-6,7-dimethoxyisoquinolinium chloride] | 6
25 | COc1cc2c(cc1OC)C(C(C)C)=[N+](Cc1ccccc1[N+](=O)[O-])CC2.[Cl-] [Compound No. 72, 1-i-propyl-2-(2-nitrophenyl)methyl-3,4-dihydro-6,7-dimethoxyisoquinolinium chloride] | 6
26 | CCCCCCCC1=[N+](Cc2ccccc2[N+](=O)[O-])CCc2cc(OC)c(OC)cc21.[Cl-] [Compound No. 73, 1-n-heptyl-2-(2-nitrophenyl)methyl-3,4-dihydro-6,7-dimethoxyisoquinolinium chloride] | 5
27 | CCCCCCCCCCCC1=[N+](Cc2ccccc2[N+](=O)[O-])CCc2cc(OC)c(OC)cc21.[Cl-] [Compound No. 74, 1-n-undecyl-2-(2-nitrophenyl)methyl-3,4-dihydro-6,7-dimethoxyisoquinolinium chloride] | 2
28 | COc1cc2c(cc1OC)C(c1ccc(C(C)(C)C)cc1)=[N+](Cc1ccccc1[N+](=O)[O-])CC2.[Cl-] [Compound No. 75, 1-(4-t-butylphenyl)-2-(2-nitrophenyl)methyl-3,4-dihydro-6,7-dimethoxyisoquinolinium chloride] | 6
29 | CCCCCCCC1=[N+](Cc2ccc(O)c([N+](=O)[O-])c2)CCc2cc(OC)c(OC)cc21.[Cl-] [Compound No. 76, 1-n-heptyl-2-(4-hydroxy-3-nitrophenyl)methyl-3,4-dihydro-6,7-dimethoxyisoquinolinium chloride] | 4
30 | CCCCCCCCCCCC1=[N+](Cc2ccc(O)c([N+](=O)[O-])c2)CCc2cc(OC)c(OC)cc21.[Cl-] [Compound No. 77, 1-n-undecyl-2-(4-hydroxy-3-nitrophenyl)methyl-3,4-dihydro-6,7-dimethoxyisoquinolinium chloride] | 2
31 | COc1cc2c(cc1OC)C(C)=[N+](Cc1cc(Br)c(OC)c(OC)c1)CC2.[Cl-] [Compound No. 78, 1-methyl-2-(3-bromo-4,5-dimethoxy)methyl-3,4-dihydro-6,7-dimethoxyisoquinolinium chloride] | 6
32 | CCCCCCCC1=[N+](Cc2cc(Br)c(OC)c(OC)c2)CCc2cc(OC)c(OC)cc21.[Cl-] [Compound No. 79, 1-n-heptyl-2-(3-bromo-4,5-dimethoxyphenyl)methyl-3,4-dihydro-6,7-dimethoxyisoquinolinium chloride] | 5
33 | COc1ccc2c(c1)CC[N+](Cc1ccccc1F)=C2C.[Cl-] [Compound No. 80, 1-methyl-2-(2-fluorophenyl)methyl-3,4-dihydro-6-methoxyisoquinolinium chloride] | 6
34 | CCC1=[N+](Cc2ccccc2F)CCc2cc(OC)ccc21.[Cl-] [Compound No. 81, 1-ethyl-2-(2-fluorophenyl)methyl-3,4-dihydro-6-methoxyisoquinolinium chloride] | 6
35 | CCCC1=[N+](Cc2ccccc2F)CCc2cc(OC)ccc21.[Cl-] [Compound No. 82, 1-n-propyl-2-(2-fluorophenyl)methyl-3,4-dihydro-6-methoxyisoquinolinium chloride] | 6
36 | COc1ccc2c(c1)CC[N+](Cc1ccccc1F)=C2CC(C)C.[Cl-] [Compound No. 84, 1-(2-methyl)propyl-2-(2-fluorophenyl)methyl-3,4-dihydro-6-methoxyisoquinolinium chloride] | 6
